Laboratory results from ChEMBL document CHEMBL5316291 (J Med Chem, 2023).
Activity calls are given as the source filed them. The calls are words filed in the database; no cut-off is given here.

Legend:
[1] = molecular target: Poly [ADP-ribose] polymerase 2 (Homo sapiens, UniProt Q9UGN5); assay: Inhibition of human recombinant N-terminal GST-tagged PARP2 (2 to 583 residues) expressed in baculovirus infected Sf9 cells expression system incubated for 1 hr by ELISA assay
[2] = molecular target: T1, Protein mono-ADP-ribosyltransferase PARP10 (Homo sapiens, UniProt Q53GL7); assay: Inhibition of human recombinant N-terminal FLAG-tagged / C-terminal Strep-tagged PARP10 (805 to 1025 end residues) expressed in baculovirus infected Sf9 cells expression system incubated for 1 hr by ELISA assay
T1 sequence (Q53GL7 whole entry): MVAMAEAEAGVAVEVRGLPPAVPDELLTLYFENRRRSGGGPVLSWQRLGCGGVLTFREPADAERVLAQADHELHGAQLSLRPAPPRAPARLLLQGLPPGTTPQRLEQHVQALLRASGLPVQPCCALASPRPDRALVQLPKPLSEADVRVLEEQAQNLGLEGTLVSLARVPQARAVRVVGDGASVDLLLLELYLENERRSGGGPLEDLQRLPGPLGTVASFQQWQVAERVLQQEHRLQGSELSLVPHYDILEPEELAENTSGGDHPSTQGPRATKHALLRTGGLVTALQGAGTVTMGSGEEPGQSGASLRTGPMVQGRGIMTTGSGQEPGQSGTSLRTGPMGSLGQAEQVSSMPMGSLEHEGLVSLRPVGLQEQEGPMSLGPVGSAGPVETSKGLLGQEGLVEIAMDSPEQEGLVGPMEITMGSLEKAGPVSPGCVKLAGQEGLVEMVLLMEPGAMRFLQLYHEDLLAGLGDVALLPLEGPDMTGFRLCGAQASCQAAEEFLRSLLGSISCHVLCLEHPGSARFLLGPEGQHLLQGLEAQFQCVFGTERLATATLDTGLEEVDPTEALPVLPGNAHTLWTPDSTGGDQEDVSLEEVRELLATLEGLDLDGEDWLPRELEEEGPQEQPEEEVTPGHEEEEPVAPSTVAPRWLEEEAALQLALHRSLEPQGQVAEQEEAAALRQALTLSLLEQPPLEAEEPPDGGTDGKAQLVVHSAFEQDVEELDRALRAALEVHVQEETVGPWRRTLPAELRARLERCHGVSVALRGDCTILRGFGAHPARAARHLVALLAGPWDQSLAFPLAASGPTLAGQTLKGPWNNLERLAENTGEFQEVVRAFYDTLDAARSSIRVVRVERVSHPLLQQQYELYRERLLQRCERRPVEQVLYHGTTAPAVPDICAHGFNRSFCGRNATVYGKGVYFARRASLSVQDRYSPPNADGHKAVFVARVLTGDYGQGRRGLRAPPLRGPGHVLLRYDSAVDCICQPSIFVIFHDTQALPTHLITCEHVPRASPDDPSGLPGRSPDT

[3] = Half life in ICR mouse at 1 mg/kg, iv measured upto 24 hrs by LC-MS/MS analysis; type: ADME, organism-based; conditions: in vivo
[4] = Half life in ICR mouse at 10 mg/kg, po measured upto 24 hrs by LC-MS/MS analysis; type: ADME, organism-based; conditions: in vivo
[5] = AUC(0 to infinity) in ICR mouse at 1 mg/kg, iv measured upto 24 hrs by LC-MS/MS analysis; type: ADME, organism-based; parameters: time < 24 hrs, dose 1 mg/kg, route iv; conditions: in vivo
[6] = AUC(0 to infinity) in ICR mouse at 10 mg/kg, po measured upto 24 hrs by LC-MS/MS analysis; type: ADME, organism-based; parameters: dose 10 mg/kg, time < 24 hrs, route po; conditions: in vivo
[7] = Apparent volume of distribution in ICR mouse at 1 mg/kg, iv measured upto 24 hrs by LC-MS/MS analysis; type: ADME, organism-based; conditions: in vivo, read-out: Vz
[8] = Clearance in ICR mouse at 1 mg/kg, iv measured upto 24 hrs by LC-MS/MS analysis; type: ADME, organism-based; conditions: in vivo
[9] = MRT(0 to infinity) in ICR mouse at 1 mg/kg, iv measured upto 24 hrs by LC-MS/MS analysis; type: ADME, organism-based; conditions: in vivo
[10] = Oral bioavailability in ICR mouse at 10 mg/kg measured upto 24 hrs by LC-MS/MS analysis; type: ADME, organism-based; conditions: in vivo
[11] = molecular target: T2, Protein mono-ADP-ribosyltransferase TIPARP (Mus musculus) (UniProt Q8C1B2); assay: Inhibition of PARP7 in mouse CT26 cells assessed as increase in […] levels at 49 to 4000 nmol/L measured after 48 hrs by RT-qPCR analysis; type: cell-based; conditions: dose lower […], dose upper 4000.0 nmol/L
T2 sequence (whole entry): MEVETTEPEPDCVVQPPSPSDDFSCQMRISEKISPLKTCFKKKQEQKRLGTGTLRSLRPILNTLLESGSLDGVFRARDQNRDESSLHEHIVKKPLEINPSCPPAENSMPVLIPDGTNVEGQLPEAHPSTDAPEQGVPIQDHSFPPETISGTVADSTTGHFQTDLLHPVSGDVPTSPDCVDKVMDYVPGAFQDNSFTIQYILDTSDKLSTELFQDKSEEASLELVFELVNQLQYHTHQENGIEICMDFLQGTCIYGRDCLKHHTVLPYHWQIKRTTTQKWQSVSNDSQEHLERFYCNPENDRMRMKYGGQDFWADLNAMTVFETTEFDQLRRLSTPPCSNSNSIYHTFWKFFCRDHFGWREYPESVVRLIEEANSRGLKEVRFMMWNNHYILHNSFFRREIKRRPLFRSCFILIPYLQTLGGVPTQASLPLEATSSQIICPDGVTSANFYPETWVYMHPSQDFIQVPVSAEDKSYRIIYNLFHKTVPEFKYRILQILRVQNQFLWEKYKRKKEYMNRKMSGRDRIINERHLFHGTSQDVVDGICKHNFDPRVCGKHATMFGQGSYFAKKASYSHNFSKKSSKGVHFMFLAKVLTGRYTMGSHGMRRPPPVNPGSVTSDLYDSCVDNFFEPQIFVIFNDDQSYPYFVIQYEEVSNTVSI

[12] = molecular target: Voltage-gated inwardly rectifying potassium channel KCNH2 (Homo sapiens, UniProt Q12809); assay: Inhibition of hERG; type: toxicity
Sequence of Voltage-gated inwardly rectifying potassium channel KCNH2 (Q12809 whole entry): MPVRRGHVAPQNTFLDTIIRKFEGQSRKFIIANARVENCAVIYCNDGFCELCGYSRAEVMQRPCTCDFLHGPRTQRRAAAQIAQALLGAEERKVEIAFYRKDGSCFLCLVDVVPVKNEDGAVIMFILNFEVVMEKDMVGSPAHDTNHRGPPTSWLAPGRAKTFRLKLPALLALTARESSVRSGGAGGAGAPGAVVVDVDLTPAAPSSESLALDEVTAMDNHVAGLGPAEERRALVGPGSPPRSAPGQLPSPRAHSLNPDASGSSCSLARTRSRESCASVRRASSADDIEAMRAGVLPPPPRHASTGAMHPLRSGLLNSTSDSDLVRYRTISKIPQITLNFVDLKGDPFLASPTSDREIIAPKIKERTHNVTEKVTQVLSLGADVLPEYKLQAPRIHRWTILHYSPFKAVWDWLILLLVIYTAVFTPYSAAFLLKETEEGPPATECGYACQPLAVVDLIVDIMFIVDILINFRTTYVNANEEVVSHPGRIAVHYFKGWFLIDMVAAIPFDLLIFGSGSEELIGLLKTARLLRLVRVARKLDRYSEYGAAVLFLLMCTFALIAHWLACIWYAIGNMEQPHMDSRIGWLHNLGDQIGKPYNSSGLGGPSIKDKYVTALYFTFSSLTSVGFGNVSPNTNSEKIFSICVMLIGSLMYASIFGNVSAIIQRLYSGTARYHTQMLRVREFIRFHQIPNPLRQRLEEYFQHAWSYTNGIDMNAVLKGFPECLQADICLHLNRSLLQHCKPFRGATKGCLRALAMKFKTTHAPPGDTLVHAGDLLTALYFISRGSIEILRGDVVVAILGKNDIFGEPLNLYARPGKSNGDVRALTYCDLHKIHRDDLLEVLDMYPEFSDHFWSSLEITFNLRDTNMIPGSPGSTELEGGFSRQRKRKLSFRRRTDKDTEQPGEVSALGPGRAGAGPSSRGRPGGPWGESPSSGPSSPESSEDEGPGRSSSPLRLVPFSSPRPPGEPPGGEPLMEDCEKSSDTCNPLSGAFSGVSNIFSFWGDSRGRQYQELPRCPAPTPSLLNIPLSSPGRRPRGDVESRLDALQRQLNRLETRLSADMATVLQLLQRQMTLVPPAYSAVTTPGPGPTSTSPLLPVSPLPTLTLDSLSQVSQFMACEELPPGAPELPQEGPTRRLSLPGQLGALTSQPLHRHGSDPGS

CT26 [13] = assay: Antitumor activity against mouse CT26 cells xenografted in BALB/c mouse assessed as tumor growth inhibition at 100 mg/kg, po bid measured for 14 days; type: functional; conditions: CT26, 336 h, time 14 day, read-out: TGI
CT26 [14] = assay: Antitumor activity against mouse CT26 cells implanted in po dosed BALB/c mouse assessed as increase in IFN-beta levels measured after 14 days by RT-qPCR analysis; type: functional, organism-based; conditions: dose 25-100 mg/kg, time 14.0 day
CT26 [15] = assay: Antitumor activity against mouse CT26 cells implanted in BALB/c mouse assessed as increase in infiltration of CD3 positive CD4 positive T lymphocytes in tumors at 50 mg/kg, po measured after 14 days by flow cytometry (reference value: 7.95%); type: functional; conditions: time 14 day
CT26 [16] = assay: Antitumor activity against mouse CT26 cells implanted in BALB/c mouse assessed as increase in infiltration of CD4 positive CD8 positive T lymphocytes in tumors at 50 mg/kg, po measured after 14 days by flow cytometry (reference value: 6.67%); type: functional; conditions: time 14 day

Sequence of Poly [ADP-ribose] polymerase 2 (Q9UGN5 whole entry, the tested form may be a part): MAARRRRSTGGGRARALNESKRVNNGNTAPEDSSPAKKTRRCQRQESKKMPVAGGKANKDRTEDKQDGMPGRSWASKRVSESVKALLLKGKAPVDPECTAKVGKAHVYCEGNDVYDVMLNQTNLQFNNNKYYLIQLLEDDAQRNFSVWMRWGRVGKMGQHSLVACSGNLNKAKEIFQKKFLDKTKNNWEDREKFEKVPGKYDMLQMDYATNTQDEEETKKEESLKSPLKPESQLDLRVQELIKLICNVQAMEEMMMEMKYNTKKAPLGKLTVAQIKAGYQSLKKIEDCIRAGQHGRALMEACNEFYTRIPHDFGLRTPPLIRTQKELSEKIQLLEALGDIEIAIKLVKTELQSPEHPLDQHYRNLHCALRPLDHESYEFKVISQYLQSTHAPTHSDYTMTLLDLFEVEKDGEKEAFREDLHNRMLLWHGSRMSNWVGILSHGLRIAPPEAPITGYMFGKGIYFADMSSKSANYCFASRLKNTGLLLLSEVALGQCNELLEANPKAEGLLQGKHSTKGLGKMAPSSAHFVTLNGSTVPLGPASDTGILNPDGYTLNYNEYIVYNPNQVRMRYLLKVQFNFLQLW

C[C@@H](CN1CC(C(=O)N2CCN(c3ncc(C(F)(F)F)cn3)CC2)C1)Nc1cn[nH]c(=O)c1C(F)(F)F
IC50 [1]: 0.546 µM
IC50 [2]: 0.325 µM
t1/2 [3]: 1.44 h
t1/2 [4]: 1.74 h
AUC [5]: 591.1 ng·h/mL
AUC [6]: 5663.5 ng·h/mL
Vd [7]: 3.66 L/kg
clearance [8]: 29 mL/min/kg
MRT inf [9]: 1.68 h
bioavailability [10]: 95.8%
inhibition [11]: Active
inhibition (INH) [12]: Not Active
inhibition in vivo at 100 mg/kg (CT26 [13]): 67%
Activity (CT26 [14]): Dose-Dependent Effect
Activity (CT26 [15]): 63.1%
Activity (CT26 [16]): 26.6%
